Data on eleven compounds can be found in ChEMBL document CHEMBL5303304, “EUbOPEN Chemogenomics Library - IncuCyte” (2023).

Format in all cases: toxicity, cell-based
One series deals with U2OS. Nature of the series: Incucyte cell viability with U2OS. To be noted: human, 10 µM, compound concentration 10 uM.
A further series deals with Fibroblast. Nature of the series: Incucyte cell viability with human fibroblast. To be noted: 10 µM, compound concentration 10 uM.
In the next series the test system is HEK-293T. Nature of the series: Incucyte cell viability with HEK293T. To be noted: human, 10 µM, compound concentration 10 uM.
Further: unitless GR value; below 1 slowed growth and below 0 cell loss.

Take `CC(=O)Nc1cccc(-n2c(=O)n(C3CC3)c(=O)c3c(Nc4ccc(I)cc4F)n(C)c(=O)c(C)c32)c1` [TRAMETINIB]: the “Growth Rate” value with U2OS (0 h, replicate number 1) worked out at 0.34; in the series with U2OS (0 h, replicate number 2), 0.61; in the series on U2OS (6 h, replicate number 1) it was 0.99; with U2OS (6 h, replicate number 2), 0.66; in the series with U2OS (12 h, replicate number 1), 0.58; in the series on U2OS (12 h, replicate number 2) it was 0.91. Besides, the “Growth Rate” value worked out at 0.53 in the series with U2OS (18 h, replicate number 1); 0.85 in the series with U2OS (18 h, replicate number 2); 0.9 in the series on U2OS (24 h, replicate number 1); 0.74 with U2OS (24 h, replicate number 2); 0.65 in the series with Fibroblast (6 h, replicate number 1); 0.04 with HEK-293T (0 h, replicate number 1). Also, the “Growth Rate” value is reported as -0.7 in the series with HEK-293T (0 h, replicate number 2); 0.92 in the series with HEK-293T (6 h, replicate number 2); 0.78 with HEK-293T (12 h, replicate number 2).
For `CN1CCN(c2ccc(Nc3ncc4cc5n(c4n3)C3(CCCCC3)CNC5=O)nc2)CC1` [TRILACICLIB], the “Growth Rate” value in the series with U2OS (0 h, replicate number 1) is listed as 0.26; with U2OS (6 h, replicate number 1) it was 0.29; in the series with U2OS (18 h, replicate number 1) it was 0.92; in the series with U2OS (24 h, replicate number 1) it was 0.84; in the series with U2OS (24 h, replicate number 2), 0.98; with Fibroblast (0 h, replicate number 1), -1. In addition, the “Growth Rate” value with HEK-293T (0 h, replicate number 1) is on record as -0.98; with HEK-293T (24 h, replicate number 2) it was 0.99.
`O=C(O)c1cc(F)c2nc(N3[C@@H]4CC[C@H]3C[C@@H](OCc3c(-c5ccccc5OC(F)(F)F)noc3C3CC3)C4)sc2c1` [TROPIFEXOR]: the “Growth Rate” value is 0.63 in the series on U2OS (6 h, replicate number 1); 0.99 with U2OS (12 h, replicate number 1); 0.33 in the series with Fibroblast (0 h, replicate number 2); 0.98 with Fibroblast (6 h, replicate number 2); 0.31 in the series with Fibroblast (12 h, replicate number 1); 0.63 with Fibroblast (18 h, replicate number 1). The “Growth Rate” value in the series on Fibroblast (24 h, replicate number 1) is 0.97; in the series on HEK-293T (0 h, replicate number 2), 0.6.
On to `CC(C)C[C@H](NC(=O)[C@@H](O)[C@H](N)Cc1ccccc1)C(=O)O` [UBENIMEX], for which the “Growth Rate” value in the series with U2OS (0 h, replicate number 1) is listed as 0.42; in the series on U2OS (6 h, replicate number 1), 0.42; in the series with U2OS (12 h, replicate number 1), 0.82; in the series with U2OS (18 h, replicate number 1), 0.94; in the series with U2OS (24 h, replicate number 1), 0.89; in the series with Fibroblast (0 h, replicate number 2), -0.85. For the same compound, the “Growth Rate” value is given as 0.72 with Fibroblast (12 h, replicate number 2); 0.83 in the series with Fibroblast (18 h, replicate number 2); 0.91 with Fibroblast (24 h, replicate number 2); 0.14 with HEK-293T (0 h, replicate number 1); 0.49 in the series on HEK-293T (6 h, replicate number 1); 0.55 in the series with HEK-293T (12 h, replicate number 1). Besides, the “Growth Rate” value was 0.49 in the series with HEK-293T (18 h, replicate number 1); 0.98 in the series on HEK-293T (18 h, replicate number 2); 0.59 in the series with HEK-293T (24 h, replicate number 1); 0.92 in the series with HEK-293T (24 h, replicate number 2).
For `c1cnc2cc3c(cc2n1)[C@@H]1CNC[C@H]3C1` [VARENICLINE], the “Growth Rate” value in the series on U2OS (0 h, replicate number 1) turned out to be 0.97; in the series on U2OS (6 h, replicate number 2) it was 0.65; in the series with U2OS (12 h, replicate number 1), 0.98; in the series on U2OS (12 h, replicate number 2), 0.82; in the series with U2OS (18 h, replicate number 1), 0.91; in the series on U2OS (18 h, replicate number 2), 1. In addition, the “Growth Rate” value in the series with U2OS (24 h, replicate number 1) is given as 0.92; in the series with U2OS (24 h, replicate number 2) it was 0.9; with Fibroblast (0 h, replicate number 1), 0.28; in the series with Fibroblast (18 h, replicate number 1), -0.31; with HEK-293T (0 h, replicate number 2) it was 0.72; in the series on HEK-293T (6 h, replicate number 1), 0.65. Besides, the “Growth Rate” value in the series with HEK-293T (6 h, replicate number 2) is 0.78; in the series on HEK-293T (12 h, replicate number 2), 0.87; in the series with HEK-293T (18 h, replicate number 2), 0.95; with HEK-293T (24 h, replicate number 1), 0.99.
On to `CC1(C)CCC(CN2CCN(c3ccc(C(=O)NS(=O)(=O)c4ccc(NCC5CCOCC5)c([N+](=O)[O-])c4)c(Oc4cnc5[nH]ccc5c4)c3)CC2)=C(c2ccc(Cl)cc2)C1` [VENETOCLAX], for which the “Growth Rate” value with U2OS (0 h, replicate number 1) is 0.58; in the series with U2OS (0 h, replicate number 2), -0.65; in the series with U2OS (6 h, replicate number 1) it was 0.5; in the series on U2OS (6 h, replicate number 2) it was 0.98; with U2OS (12 h, replicate number 1), 0.81; in the series with U2OS (12 h, replicate number 2), 0.51. In addition, the “Growth Rate” value was 0.78 with U2OS (18 h, replicate number 1); 0.89 with U2OS (18 h, replicate number 2); 0.81 in the series on U2OS (24 h, replicate number 1); 0.93 in the series with U2OS (24 h, replicate number 2); -0.85 with Fibroblast (0 h, replicate number 2); 0.5 with Fibroblast (6 h, replicate number 1). The “Growth Rate” value is 0.87 in the series on Fibroblast (12 h, replicate number 1); 0.6 in the series on HEK-293T (0 h, replicate number 2); 0.01 with HEK-293T (6 h, replicate number 1); 0.58 in the series with HEK-293T (12 h, replicate number 1); 0.66 with HEK-293T (18 h, replicate number 1); 0.87 in the series with HEK-293T (24 h, replicate number 1).
Consider `CCOC(=O)C1=C[C@]2(CC)CCCN3CCc4c(n1c1ccccc41)[C@@H]32` [VINPOCETINE], for which the “Growth Rate” value with U2OS (0 h, replicate number 1) is -0.74; in the series on U2OS (0 h, replicate number 2) it was -0.97; in the series with U2OS (6 h, replicate number 2), 0.42; with U2OS (12 h, replicate number 2) it was 0.83; in the series with U2OS (18 h, replicate number 2) it was 0.73; in the series with U2OS (24 h, replicate number 2) it was 0.79. Moreover, the “Growth Rate” value with Fibroblast (6 h, replicate number 1) was 0.56; in the series with Fibroblast (6 h, replicate number 2), -0.97; in the series with Fibroblast (12 h, replicate number 1), -1; with Fibroblast (12 h, replicate number 2), 0.32; in the series on Fibroblast (18 h, replicate number 2) it was 0.85; with HEK-293T (0 h, replicate number 2), 0.71. The “Growth Rate” value with HEK-293T (6 h, replicate number 1) came to 0.46; with HEK-293T (12 h, replicate number 1), 1; in the series on HEK-293T (12 h, replicate number 2), 0.83; in the series on HEK-293T (18 h, replicate number 1) it was 0.95; in the series on HEK-293T (18 h, replicate number 2), 0.89; in the series with HEK-293T (24 h, replicate number 1), 0.94.
Regarding `CNC(=O)c1cccc(-c2ccc3c(N4CCOC[C@@H]4C)nc(N4CCOC[C@@H]4C)nc3n2)c1` [VISTUSERTIB], the “Growth Rate” value was 0.02 with U2OS (0 h, replicate number 1); 0.98 in the series on U2OS (6 h, replicate number 1); 0.93 in the series with U2OS (18 h, replicate number 1); 0.56 in the series with U2OS (24 h, replicate number 1); -0.6 with Fibroblast (0 h, replicate number 2); 0.26 in the series with Fibroblast (12 h, replicate number 2). Also, the “Growth Rate” value was 0.78 with Fibroblast (18 h, replicate number 1); 0.18 in the series with Fibroblast (18 h, replicate number 2); 0.66 in the series with Fibroblast (24 h, replicate number 1); 0.33 in the series with Fibroblast (24 h, replicate number 2); -0.56 in the series on HEK-293T (6 h, replicate number 1); -0.82 in the series on HEK-293T (6 h, replicate number 2). Moreover, the “Growth Rate” value with HEK-293T (12 h, replicate number 1) was -0.41; in the series on HEK-293T (12 h, replicate number 2), -0.55; in the series with HEK-293T (18 h, replicate number 1), -0.28; in the series on HEK-293T (18 h, replicate number 2) it was -0.39; in the series on HEK-293T (24 h, replicate number 1), -0.18; in the series on HEK-293T (24 h, replicate number 2) it was -0.28.
For the compound `COc1cccc(CNc2ccc(S(=O)(=O)Nc3nc4ccccc4s3)cc2)c1O` [VLX-1005], the “Growth Rate” value in the series on U2OS (6 h, replicate number 1) stood at 0.62; in the series on U2OS (12 h, replicate number 1), 0.89; with U2OS (24 h, replicate number 1), 0.99; with Fibroblast (6 h, replicate number 2), 0.25; in the series on Fibroblast (12 h, replicate number 2) it was 0.76; in the series on Fibroblast (18 h, replicate number 2), 0.84. Besides, the “Growth Rate” value in the series on Fibroblast (24 h, replicate number 1) was 1; with Fibroblast (24 h, replicate number 2) it was 0.84; in the series on HEK-293T (0 h, replicate number 1), 0.18; in the series with HEK-293T (18 h, replicate number 1) it was 0.96.
With `CN[C@@H](C)C(=O)N[C@H]1CN(C(=O)CC(C)C)CC[C@H]2CC[C@@H](C(=O)NC(c3ccccc3)c3ccccc3)N2C1=O` [XEVINAPANT], the “Growth Rate” value in the series with U2OS (0 h, replicate number 2) is 0.1; with Fibroblast (0 h, replicate number 2) it was 0.68; with Fibroblast (6 h, replicate number 1), -0.46; with Fibroblast (6 h, replicate number 2), 0.35; in the series with Fibroblast (12 h, replicate number 1), 0.68; in the series with Fibroblast (12 h, replicate number 2), 0.73. The “Growth Rate” value with Fibroblast (18 h, replicate number 2) is recorded as 0.78; with Fibroblast (24 h, replicate number 1), 0.9; in the series on Fibroblast (24 h, replicate number 2), 0.88; in the series on HEK-293T (0 h, replicate number 1), 0.08; with HEK-293T (6 h, replicate number 1), 0.36; with HEK-293T (12 h, replicate number 1), 0.86. For the same compound, the “Growth Rate” value with HEK-293T (18 h, replicate number 1) was 0.71; with HEK-293T (18 h, replicate number 2), 0.97; in the series on HEK-293T (24 h, replicate number 1) it was 0.92.
As to `Cc1cccc(F)c1C(=O)Nc1cnc(-c2cc3c(cc2Cl)OC(F)(F)O3)cn1` [ZEGOCRACTIN], the “Growth Rate” value in the series on U2OS (0 h, replicate number 1) is given as 0.13; in the series on U2OS (0 h, replicate number 2) it was -0.79; in the series with U2OS (6 h, replicate number 1), 0.26; in the series on U2OS (6 h, replicate number 2), 0.28; in the series on U2OS (12 h, replicate number 1) it was 0.45; in the series on U2OS (12 h, replicate number 2) it was 0.78. Also, the “Growth Rate” value with U2OS (18 h, replicate number 1) is 0.72; in the series on U2OS (18 h, replicate number 2) it was 0.9; in the series on U2OS (24 h, replicate number 1), 0.8; in the series with U2OS (24 h, replicate number 2) it was 0.92; in the series with Fibroblast (0 h, replicate number 2) it was -0.42; in the series with Fibroblast (6 h, replicate number 2), -0.57. The “Growth Rate” value in the series on Fibroblast (12 h, replicate number 1) is listed as -0.81; in the series on Fibroblast (12 h, replicate number 2), 0.2; in the series on Fibroblast (18 h, replicate number 1) it was 0.77; with Fibroblast (18 h, replicate number 2) it was 0.4; with Fibroblast (24 h, replicate number 1), 0.84; in the series on Fibroblast (24 h, replicate number 2) it was 0.26. For the same compound, the “Growth Rate” value in the series on HEK-293T (6 h, replicate number 1) was -0.06; in the series with HEK-293T (6 h, replicate number 2) it was -0.48; in the series with HEK-293T (12 h, replicate number 1), 0.19; in the series with HEK-293T (12 h, replicate number 2) it was -0.06; in the series on HEK-293T (18 h, replicate number 1), 0.24; with HEK-293T (18 h, replicate number 2), 0.31. Further, in the series with HEK-293T (24 h, replicate number 1), the “Growth Rate” value is 0.34.
